The values below come from patent publication US12319675B2 (Artax Biopharma Inc., priority 2018, dated 2025).

SMILES strings stand for the structures.

A short description of series [1]: Microsomal stability assay, human. Type of series: in vitro ADME. Particulars: human microsomes, read-out: Microsomal Stability (T1/2 min) Human. How it is done:
(§1) Microsomal stability assays were performed using mouse, rat, and human […] according to methods well-known in the art. Microsomal stability results are shown in Table 2 for selected compounds of the invention. The compound numbers correspond to the compound numbers in Table 1. […] “N/A” indicates not assayed.

The nature of series [2]: Microsomal stability assay, mouse. Particulars: mouse microsomes, read-out: Microsomal Stability (T1/2 min) Mouse. It is filed as in vitro ADME. How it is done:
as §1

Series [3] deals with Nck SH3 domain interaction with the proline rich sequence of TCR subunit CD3ε (Homo sapiens, UniProt P16333). Kind of series: Competitive binding, biosensor with Interferometric Optical Detection Method (IODM). The note with it: ratio of 1:1 between Nck SH3 domain and inhibitors; biotinylated CD3ε peptide on sensing surface. How it is done:
Inhibition of Nck SH3 domain interaction with the proline rich sequence of TCR subunit CD3ε was measured by optical read-out of a biosensor based on the Interferometric Optical Detection Method (IODM), using established methods (WO 2010/026269; WO 2014/020159; Laguna, M. et al., Sensors, 2015, 15(8):19819-29; and Holgado, M. et al., Sensors, 2014, 14(2): 3675-89).
Briefly, a Biophotonic Cell (BICELL) based on Fabry-Perot interferometers was used as the photonic transducer. The BICELL was fabricated using SU8 in cyclopentanone according to known methods (e.g., Laguna, M. F. et al., Sensors, 2014, 14(4): 6695-6700). Cured film was then treated with 95% sulfuric acid for 10 seconds. Streptavidin was then immobilized on the sensing surface in phosphate buffered saline (PBS; pH 7.4) over 20 min at 37° C. followed by blocking of the surface with 5% skin milk in PBS (pH 7.4). Biotinylated CD3ε peptide (SEQ ID NO: 001) in PBS (pH 7.4) was incubated with the streptavidin coated film to biofunctionalize the sensing surface (20 min at 37° C.).
Competitive binding assays were performed to determine the affinity reaction of inhibitors. The screening was carried out using a ratio of 1:1 between Nck SH3 domain and inhibitors. The optical readout of the biosensor was accomplished by a Fourier transform visible-infrared (FT-VIS-IR) spectrometer. Competitive binding results are shown in Table 3 for selected compounds of the invention. The compound numbers correspond to the compound numbers in Table 1. Compounds having a designation of “A” provide an Increased Relative Optical Power (ΔIROP) of less than or equal to thirty percent (≤30%); compounds having a designation of “B” provide a ΔIROP of between thirty and fifty percent (>30% to ≤50%); compounds having a designation of “C” provide an ΔIROP of between fifty and seventy percent (>50% to ≤70%); and compounds having a designation of “D” provide a ΔIROP of greater than seventy percent (>70%).

Series [4] is described as follows: Microsomal stability assay, rat. It is filed as in vitro ADME. The note with it: rat microsomes, read-out: Microsomal Stability (T1/2 min) Rat. How it is done:
as §1

Regarding `CCNC(=O)C1=C(c2ccc(F)cc2)c2cc(OC(F)(F)F)ccc2OC1` [Compound I-8], the half-life in series [1] was over 30 min; in series [2] it was under 10 min; in series [4], under 10 min. Besides, the “ΔIROP (Increased Relative Optical Power)” value in series [3] was “B (a ΔIROP of between thirty and fifty percent (>30% to ≤50%))”.

As for `CN1CCN(C(=O)C2=C(c3ccc(F)cc3)c3cc(OC(F)(F)F)ccc3OC2)CC1` [Compound I-9], the half-life in series [1] was 10 to 30 min; in series [2] it was 10 to 30 min; in series [4], under 10 min. For the same compound, the “ΔIROP (Increased Relative Optical Power)” value in series [3] is “D (a ΔIROP of greater than seventy percent (>70%))”.

Turning to `N#CCCOc1ccc2c(c1)C(c1ccc(F)cc1)=C(CN1CCCC1)CO2` [Compound I-32, 3-((4-(4-fluorophenyl)-3-(pyrrolidin-1-ylmethyl)-2H-chromen-6-yl)oxy)propanenitrile], the half-life in series [1] is 10 to 30 min; in series [2] it was 10 to 30 min; in series [4], under 10 min. In series [3], the “ΔIROP (Increased Relative Optical Power)” value was “B (a ΔIROP of between thirty and fifty percent (>30% to ≤50%))”.

With `CCNC(=O)C1=C(c2ccc(F)cc2)c2cc(OC(F)F)ccc2OC1` [Compound I-2], the half-life was 10 to 30 min in series [1], under 10 min in series [2] and under 10 min in series [4]. Besides, in series [3], the “ΔIROP (Increased Relative Optical Power)” value is “C (an ΔIROP of between fifty and seventy percent (>50% to ≤70%))”.

For the compound `CN(C)CCNC(=O)C1=C(c2ccc(F)cc2)c2cc(OC(F)(F)F)ccc2OC1` [Compound I-10, N-(2-(dimethylamino)ethyl)-4-(4-fluorophenyl)-6-(trifluoromethoxy)-2H-chromene-3-carboxamide], the half-life in series [1], in series [2] and in series [4] was over 30 min throughout. Also, the “ΔIROP (Increased Relative Optical Power)” value in series [3] is “A (an Increased Relative Optical Power (ΔIROP) of less than or equal to thirty percent (≤30%))”.

For the compound `COc1ccc2c(c1)C(c1ccc(Cl)cc1)=C(C(=O)N1CCN(C)CC1)CO2` [Compound I-28], the half-life in series [1], in series [2] and in series [4] was under 10 min in each case. Also, the “ΔIROP (Increased Relative Optical Power)” value in series [3] is given as “D (a ΔIROP of greater than seventy percent (>70%))”.

Regarding `CN(C)CCNC(=O)C1=C(c2ccc(F)cc2)c2cc(OC(F)F)ccc2OC1` [Compound I-4], the half-life in series [1] was over 30 min; in series [2], 10 to 30 min; in series [4] it was 10 to 30 min. Further, the “ΔIROP (Increased Relative Optical Power)” value in series [3] was “B (a ΔIROP of between thirty and fifty percent (>30% to ≤50%))”.

For `COc1ccc2c(c1)C(c1cccc(F)c1)=C(C(=O)N1CCN(C)CC1)CO2` [Compound I-31], the half-life in series [1] is 10 to 30 min; in series [2], under 10 min; in series [4], under 10 min. Also, the “ΔIROP (Increased Relative Optical Power)” value in series [3] is “C (an ΔIROP of between fifty and seventy percent (>50% to ≤70%))”.

As for `CN1CCN(C(=O)C2=C(c3ccc(F)cc3)c3cc(C(F)(F)F)ccc3OC2)CC1` [Compound I-26, (4-(4-fluorophenyl)-6-(trifluoromethyl)-2H-chromen-3-yl)(4-methylpiperazin-1-yl)methanone], the half-life was 10 to 30 min in series [1], under 10 min in series [2] and under 10 min in series [4]. Further, in series [3], the “ΔIROP (Increased Relative Optical Power)” value was “C (an ΔIROP of between fifty and seventy percent (>50% to ≤70%))”.

For the compound `Fc1ccc(C2=C(CN3CCOCC3)COc3ccc(OC(F)F)cc32)cc1` [Compound I-5], the half-life in series [1], in series [2] and in series [4] was 10 to 30 min each time. For the same compound, in series [3], the “ΔIROP (Increased Relative Optical Power)” value was “B (a ΔIROP of between thirty and fifty percent (>30% to ≤50%))”.

On to `CCNCC1=C(c2ccc(F)cc2)c2cc(OC(F)F)ccc2OC1` [Compound I-6], for which the half-life was over 30 min in series [1], over 30 min in series [2] and under 10 min in series [4]. The “ΔIROP (Increased Relative Optical Power)” value in series [3] was “C (an ΔIROP of between fifty and seventy percent (>50% to ≤70%))”.
